Measurements: the NIST ThermoML archive (doi:10.1021/acs.jced.5b00366)

Experiments:
[1] = 102 kPa, Liquid, Vibrating tube method
[2] = xn = mol fraction of the nth substance listed; conditions: 102 kPa, Liquid, Vibrating tube method
[3] = mn = molality of the nth substance listed, in mol/kg; conditions: 102 kPa, Liquid, Vibrating tube method

CCCCO [butan-1-ol]
[1]
Conditions | mass density [kg/m3]
293.15 K | 809.84
298.15 K | 806.03
303.15 K | 802.19
308.15 K | 798.38

CCCCO [butan-1-ol] + CO
mass density [kg/m3], [2]
Conditions | 293.15 K | 298.15 K | 303.15 K | 308.15 K
x1 = 0.05 | 793 | 788.48 | 783.92 | 779.32
x1 = 0.1 | 794.55 | 790.15 | 785.69 | 781.19
x1 = 0.15 | 795.82 | 791.52 | 787.15 | 782.74
x1 = 0.2 | 797.09 | 792.81 | 788.52 | 784.19
x1 = 0.25 | 798.29 | 794.06 | 789.82 | 785.52
x1 = 0.3 | 799.4 | 795.23 | 791.01 | 786.78
x1 = 0.4 | 801.48 | 797.4 | 793.26 | 789.13
x1 = 0.5 | 803.28 | 799.27 | 795.21 | 791.18
x1 = 0.6 | 804.87 | 800.94 | 796.94 | 792.99
x1 = 0.7 | 806.38 | 802.48 | 798.57 | 794.64
x1 = 0.8 | 807.62 | 803.77 | 799.91 | 796.04
x1 = 0.9 | 808.83 | 804.99 | 801.12 | 797.29
x1 = 1 | 809.84 | 806.03 | 802.19 | 798.38

[Cd+2].[I-].[I-] [cadmium iodide (CdI2)] + CCCCO
mass density [kg/m3], [3]
Conditions | m1 = 0.004 | m1 = 0.005 | m1 = 0.006 | m1 = 0.008 | m1 = 0.01 | m1 = 0.02 | m1 = 0.05 | m1 = 0.08
293.15 K | 811.57 | 811.75 | 811.98 | 812.48 | 813.03 | 815.24 | 822.26 | 830.17
298.15 K | 807.62 | 807.92 | 808.19 | 808.94 | 809.67 | 811.39 | 819.27 | 826.26
303.15 K | 803.74 | 804.06 | 804.49 | 805.19 | 805.87 | 807.51 | 814.48 | 822.32
308.15 K | 799.64 | 800.2 | 800.59 | 801.3 | 802.1 | 803.62 | 810.6 | 818.39

[Cd+2].[I-].[I-] [cadmium iodide (CdI2)] + CO
mass density [kg/m3], [3]
Conditions | m1 = 0.004 | m1 = 0.005 | m1 = 0.006 | m1 = 0.008 | m1 = 0.01 | m1 = 0.02 | m1 = 0.05 | m1 = 0.08
293.15 K | 792.58 | 792.87 | 793.02 | 793.63 | 794.17 | 797.09 | 805.07 | 811.5
298.15 K | 787.92 | 788.22 | 788.45 | 789.1 | 789.72 | 792.37 | 800.28 | 806.75
303.15 K | 783.18 | 783.49 | 783.71 | 784.31 | 784.72 | 787.65 | 795.4 | 801.87
308.15 K | 778.43 | 778.74 | 778.86 | 779.43 | 780.04 | 782.94 | 790.79 | 797.4

CO [methanol]
[1]
Conditions | mass density [kg/m3]
293.15 K | 791.34
298.15 K | 786.68
303.15 K | 781.96
308.15 K | 777.21

CO [methanol] + CCCCO
[2], x2 = 0
Conditions | mass density [kg/m3]
293.15 K | 791.34
298.15 K | 786.68
303.15 K | 781.96
308.15 K | 777.21
